Here are results for 4 compounds from PMC9022420 (Scientific Reports, 2022).

SMILES strings stand for the structures. Several values for one entry are separate records, joined by “and”; a condition that tells them apart may be missing. Equal values may be shown once.

The nature of data set [1]: Fluorescence quantum yield determination. Type of data set: physicochemical. To be noted: in DMSO; for φF fluorescence quantum yield: calculated using riboflavin as the reference. How it is done:
4 Fluorescence Quantum Yield Calculations
The fluorescence quantum yields (ФF) for F1-4 were determined by preparing a series of dilutions in DMSO ranging
in absorbance values from 0.02 to 0.10 and excited at their respective absorbance maxima (see Table S1).3 The
emission peak was then integrated and plotted against the absorbance value (see Figure S1). Riboflavin (from
according to equation (1):
Φ!;#$%&’( = Φ!;)(* $ !"#$%&% $ !"#$%&) % (1)
Where Slope = gradient from the plot of integrated emission peak vs. absorption value and η = refractive index
Flavin ε (M-1cm-1) λex (nm) λem (nm)
Figure S2: Plot of integrated emission peak against absorbance value of flavins F1-4 and reference compound

The subject of the next data set is E. coli BL21(DE3). The data set can be described thus: Photodynamic inactivation of E. coli (CFU counting). Format: cell-based. The method, then: After an overnight aerobic culture in LB broth at 37 °C with shaking at 225 rpm, the resulting E. coli were centrifuged at 2,500 rpm for 10 min. The pellet was resuspended in PBS (Sigma, 1x, pH 7.4) to an OD600 value of 0.6 (~ 1 × 10^8 bacteria per ml). […] Aliquots of negative controls (0.5% DMSO in PBS; PBS only) and 100 μM flavin-bacteria samples were covered in foil to remain in dark, while all samples were plated onto a 96-well plate and exposed to white LED irradiation (1 × 10^5 lx) for 15 min. After 15 min of irradiation or darkness, each sample was serially diluted to its respective, appropriate dilution and plated onto an LB agar plate with 50 μg/mL kanamycin. Plates were incubated overnight at 37 °C in the dark. Survival of bacteria was determined by counting colony forming units (CFUs) the next day.
For time point data, aliquots of 100 μM flavin-bacteria solutions were taken at 5-min increments of irradiation (0, 5, 10, and 15 min) and evaluated similarly as above. Time point experiment with one-minute increments, between 0 and 5 min, were conducted for 100 μM F4-bacteria samples.

The next data set deals with pDNA (pUC18). The data set can be described thus: pDNA photocleavage, agarose gel electrophoresis. Type of data set: biochemical. Particulars: 10 µM flavin, 15 min white LED, PBS 0.1% DMSO. How it is done:
A 20 µL aliquot was taken after 15 min of white LED irradiation (1 × 10^5 lx). Prior to loading, 2 µL of 6X Orange-G loading dye in glycerol were added to the aliquot and mixed vigorously. The gel was electrophoresed at 80 V for 35 min with 1% agarose gels in 1X Tris–acetate-EDTA (TAE) buffer. Gels were then imaged in a Syngene G:BOX Gel Documentation System and band % quantification was performed using ImageJ Gel Analyzer.

The mark [2] stands for this setting: 10 µM flavin, 15 min irradiation.
Setting [3] is: 100 µM flavin, 5 min irradiation (10.5 J/cm^2).
Where [4] appears, read: 100 µM flavin, 10 min irradiation.

As to `CCCCCCCCn1c(=O)nc2n(CCN)c3cc(Br)c(Br)cc3nc-2c1=O` [Flavin F3], the “ФF fluorescence quantum yield” value in data set [1] is under 2%. Besides, in data set [1], the “φF fluorescence quantum yield” value was 0.009 ± 0.013. For the same compound, the “E. coli log10 reduction of CFUs” value stood at 0.4 log10 in the data set with E. coli BL21(DE3) (setting [2]); 1.3 log10 in the data set with E. coli BL21(DE3) (setting [3]); 1.7 log10 in the data set on E. coli BL21(DE3) (setting [4]); 1.8 log10 in the data set on E. coli BL21(DE3) (100 µM flavin, 15 min irradiation).

As to `CCCCCCCCn1c(=O)nc2n(CCN)c3cc(C)c(C)cc3nc-2c1=O` [Flavin F1], the “ФF fluorescence quantum yield” value in data set [1] is on record as 13%. The “φF fluorescence quantum yield” value in data set [1] was 0.129 ± 0.012. Further, the figures for the “E. coli log10 reduction of CFUs” value in the data set on E. coli BL21(DE3) (setting [2]), in the data set with E. coli BL21(DE3) (setting [3]) and in the data set with E. coli BL21(DE3) (setting [4]) were 0.2 log10, 0.1 log10 and 0.1 log10, respectively.

For `CCCCCCCCn1c(=O)nc2n(CCNC(=N)N)c3cc(Br)c(Br)cc3nc-2c1=O` [Flavin F4], the “ФF fluorescence quantum yield” value in data set [1] is given as under 2%. In addition, the “φF fluorescence quantum yield” value in data set [1] is listed as 0.011 ± 0.010. For the same compound, the “E. coli log10 reduction of CFUs” value in the data set with E. coli BL21(DE3) (setting [2]) is 2.8 log10; with E. coli BL21(DE3) (100 µM flavin, 1 min irradiation (2.10 J/cm^2), calculated vs t0 = 7.9), 4.1 log10 and > 4 log10; with E. coli BL21(DE3) (setting [4]) it was 8.7 log10. Further, in the data set on E. coli BL21(DE3) (100 µM flavin, 1 min irradiation), the “E. coli reduction of bacteria” value is reported as over 99.99%. Further, the “bacterial inactivation, log10 reduction” value in the data set with E. coli BL21(DE3) (15 min irradiation at 11 μM) was over 3 log10. For the same compound, the “% NC (nicked coiled pDNA after photocleavage)” value in the data set on pDNA (pUC18) is 21%.

On to `CCCCCCCCn1c(=O)nc2n(CCNC(=N)N)c3cc(C)c(C)cc3nc-2c1=O` [Flavin F2], for which, in data set [1], the “ФF fluorescence quantum yield” value is on record as 14% and the “φF fluorescence quantum yield” value is 0.141 ± 0.010. Besides, in the data set with E. coli BL21(DE3) (100 µM flavin, 5 min irradiation), the “E. coli reduction of bacteria” value is given as over 99.9%. For the same compound, the “E. coli log10 reduction of CFUs” value with E. coli BL21(DE3) (setting [3]) amounted to 3.4 log10. Further, the “E. coli log10 reduction of CFUs” value in the data set on E. coli BL21(DE3) (setting [4]) came to 5.9 log10. Also, in the data set on pDNA (pUC18), the “% NC (nicked coiled pDNA after photocleavage)” value turned out to be 39%.
